Measurements: patent publication US20250360125A1, “METHODS AND COMPOSITIONS FOR TREATING HUNTINGTON'S DISEASE AND ITS SYMPTOMS” (Corcept Therapeutics Incorporated, priority 2023, published 2025)

How the values were obtained:
R6/2 mouse model [1] = test: Forelimb grip strength in R6/2 mice; assay type: in vivo; settings: 30 mg/kg s.c. daily for 5 weeks
Protocol: (§1) HD and wild-type (WT) R6/2 mice were purchased from JAX (The Jackson Laboratory, ME, USA) and arrived in the animal facility at 4-weeks of age. The mice were housed under normal conditions (room temperature, 12 hours light/dark cycle) with food and water ab libitum. The mice were housed 3-4 per cage, separated by sex, but different genotypes were housed together to improve the survival of the HD mice^11. Genotyping on tail samples that were collected post-mortem was performed by Laragen (CA, USA) to confirm that all HD mice had between 120-130 CAG repeats.
Animal studies: experimental procedures From 6 weeks of age onwards, mice received a daily subcutaneous (s.c.) injection either with 30 mg/kg of CORT113176 or vehicle (Veh; 10% ethanol and castor oil in experiment 1 or sesame oil in experiment 2) for five consecutive weeks. In experiment 1, male and female mice were assigned into one of the following groups: 1) WT+Veh (n=5 per sex), 2) WT+CORT113176 (n=5), 3) HD+Veh (n=5) or 4) HD+CORT113176 (n=5). […] Bodyweight was measured weekly and motor tests were performed at 1 PM to monitor the disease progression (as described below). […]
Grip strength: Grip strength measurements were performed weekly to quantify muscle strength. […] The mouse was then gently pulled away until grip was lost, and the force that was required to do this was monitored. […]

R6/2 mouse model [2] = test: Hindlimb clasping test in R6/2 mice; assay type: in vivo; settings: 30 mg/kg s.c. daily for 5 weeks
Protocol: as §1
Animal studies: experimental procedures From 6 weeks of age onwards, mice received a daily subcutaneous (s.c.) injection either with 30 mg/kg of CORT113176 or vehicle (Veh; 10% ethanol and castor oil in experiment 1 or sesame oil in experiment 2) for five consecutive weeks. In experiment 1, male and female mice were assigned into one of the following groups: 1) WT+Veh (n=5 per sex), 2) WT+CORT113176 (n=5), 3) HD+Veh (n=5) or 4) HD+CORT113176 (n=5). In the final analysis there was an unequal group distribution for the male mice due to a mislabeled genotype and a mouse reaching an earlier endpoint resulting in n=6 in the WT+Veh group and n=3 in the HD+Veh group. In experiment 2, male mice were assigned into the following groups: 1) WT+Veh (n=10), 2) HD+Veh (n=10, ultimately n=8 due to a non-responder that met outlier criteria and a mouse reaching an earlier timepoint) and 3) HD+CORT113176 (n=10). Bodyweight was measured weekly and motor tests were performed at 1 PM to monitor the disease progression (as described below). On day 19 and day 34, blood samples were taken in the morning to evaluate corticosterone levels. On day 34, the animals were sacrificed using CO2 inhalation, blood was collected via cardiac puncture and the animals were perfused with cold PBS. Afterwards, several tissues were harvested and snap-frozen for further analysis. Brains were collected and stored for 24 hours at 4% PFA for IHC (further described below). […]

R6/2 mouse model [3] = test: Observed epileptic seizures in R6/2 mice (Racine scale); assay type: in vivo
Protocol: as §1
Animal studies: experimental procedures From 6 weeks of age onwards, mice received a daily subcutaneous (s.c.) injection either with 30 mg/kg of CORT113176 or vehicle (Veh; 10% ethanol and castor oil in experiment 1 or sesame oil in experiment 2) for five consecutive weeks. In experiment 1, male and female mice were assigned into one of the following groups: 1) WT+Veh (n=5 per sex), 2) WT+CORT113176 (n=5), 3) HD+Veh (n=5) or 4) HD+CORT113176 (n=5). In the final analysis there was an unequal group distribution for the male mice due to a mislabeled genotype and a mouse reaching an earlier endpoint resulting in n=6 in the WT+Veh group and n=3 in the HD+Veh group. In experiment 2, male mice were assigned into the following groups: 1) WT+Veh (n=10), 2) HD+Veh (n=10, ultimately n=8 due to a non-responder that met outlier criteria and a mouse reaching an earlier timepoint) and 3) HD+CORT113176 (n=10). Bodyweight was measured weekly and motor tests were performed at 1 PM to monitor the disease progression (as described below). On day 19 and day 34, blood samples were taken in the morning to evaluate corticosterone levels. On day 34, the animals were sacrificed using CO2 inhalation, blood was collected via cardiac puncture and the animals were perfused with cold PBS. Afterwards, several tissues were harvested and snap-frozen for further analysis. Brains were collected and stored for 24 hours at 4% PFA for IHC (further described below).
These seizures were not anticipated, but every case was documented throughout the experiment and scored using the Racine scale^15.

GFAP = GFAP immunohistochemistry (astrocyte marker) in striatum and hippocampus of R6/2 mice; assay type: in vivo, mouse; settings: experiment 1, male HD R6/2 mice, 30 mg/kg s.c. daily for 5 weeks
Protocol: (§2) Animal studies: experimental procedures From 6 weeks of age onwards, mice received a daily subcutaneous (s.c.) injection either with 30 mg/kg of CORT113176 or vehicle (Veh; 10% ethanol and castor oil in experiment 1 or sesame oil in experiment 2) for five consecutive weeks. In experiment 1, male and female mice were assigned into one of the following groups: 1) WT+Veh (n=5 per sex), 2) WT+CORT113176 (n=5), 3) HD+Veh (n=5) or 4) HD+CORT113176 (n=5). In the final analysis there was an unequal group distribution for the male mice due to a mislabeled genotype and a mouse reaching an earlier endpoint resulting in n=6 in the WT+Veh group and n=3 in the HD+Veh group. […] Bodyweight was measured weekly and motor tests were performed at 1 PM to monitor the disease progression (as described below). […] The slides of DARP32, GFAP and Iba1 were scanned with the Axio Slide Scanner (Zeiss, Axio Slide Scan.Z1) and the mHtt slides were analyzed using the confocal microscope (Leica, White Light Laser Confocal Microscope TCS SP8 X). All obtained images were analyzed using ImageJ (version 1.52p). DARP32, GFAP and Iba1 the mean intensity was measured in the striatum and hippocampus. The total number of aggregates in a specific region of interest (ROI), the total area in the ROI and the average size of the aggregates were measured.

Iba1 = Iba1 immunohistochemistry (microglia marker) in hippocampus of R6/2 mice; assay type: in vivo, mouse; settings: experiment 1, male HD R6/2 mice, 30 mg/kg s.c. daily for 5 weeks
Protocol: as §2

mHtt aggregates = test: mHtt aggregate immunohistochemistry in striatum and hippocampal CA1 of R6/2 mice; assay type: in vivo, mouse; settings: experiment 2, male HD R6/2 mice, vs vehicle-treated HD mice
Protocol: Animal studies: experimental procedures From 6 weeks of age onwards, mice received a daily subcutaneous (s.c.) injection either with 30 mg/kg of CORT113176 or vehicle (Veh; 10% ethanol and castor oil in experiment 1 or sesame oil in experiment 2) for five consecutive weeks. In experiment 1, male and female mice were assigned into one of the following groups: 1) WT+Veh (n=5 per sex), 2) WT+CORT113176 (n=5), 3) HD+Veh (n=5) or 4) HD+CORT113176 (n=5). In the final analysis there was an unequal group distribution for the male mice due to a mislabeled genotype and a mouse reaching an earlier endpoint resulting in n=6 in the WT+Veh group and n=3 in the HD+Veh group. In experiment 2, male mice were assigned into the following groups: 1) WT+Veh (n=10), 2) HD+Veh (n=10, ultimately n=8 due to a non-responder that met outlier criteria and a mouse reaching an earlier timepoint) and 3) HD+CORT113176 (n=10). Bodyweight was measured weekly and motor tests were performed at 1 PM to monitor the disease progression (as described below). On day 19 and day 34, blood samples were taken in the morning to evaluate corticosterone levels. On day 34, the animals were sacrificed using CO2 inhalation, blood was collected via cardiac puncture and the animals were perfused with cold PBS. Afterwards, several tissues were harvested and snap-frozen for further analysis. Brains were collected and stored for 24 hours at 4% PFA for IHC (further described below). Immunohistochemistry Brains were isolated and the left hemisphere was fixated in 4% PFA (Sigma-Aldrich, 8187085000) for 24 hours. Afterwards the brains were transferred to a 30% sucrose solution for 24-48 hours and stored at −80° C. until further processing. Cryosections of 10 μM were collected (CryoStar NX70) on slides (Avantor, VWR® Microscope Slides, 631-1166) and stored at −20° C. until staining. The slides were incubated for 25 minutes with 0.1% Triton X-100 (Sigma-Aldrich), washed with 0.1% PBS/Tween (Tween®20, Sigma-Aldrich). The background signal was blocked with 5% PBSA for 30 minutes before the incubation with the primary antibody DARP32, (1:500, abcam, EP720Y, ab40801), GFAP (1:500, Agilent DAKO, Z0334), Iba1, (1:500, Fujifilm Wako, 019-19741) or mHtt, 1:500 (1:500, abcam, EPR5526, ab209668) overnight at 4° C. The following day slides were washed with 0.1% PBS/Tween before incubation with the secondary antibody goat anti-rabbit Alexa Fluor 488 (1:250, Invitrogen, A-110088) for 30 minutes. After a final wash with 0.1% PBS/Tween, ProLong gold with DAPI (Invitrogen, P36931) was added with a coverslip (Thermo-Fisher, Menzel-Glaser, 0980) and the slides were dried at room temperature. The slides of DARP32, GFAP and Iba1 were scanned with the Axio Slide Scanner (Zeiss, Axio Slide Scan.Z1) and the mHtt slides were analyzed using the confocal microscope (Leica, White Light Laser Confocal Microscope TCS SP8 X). All obtained images were analyzed using ImageJ (version 1.52p). DARP32, GFAP and Iba1 the mean intensity was measured in the striatum and hippocampus. The total number of aggregates in a specific region of interest (ROI), the total area in the ROI and the average size of the aggregates were measured.

R6/2 mouse model [4] = test: Gait abnormalities in R6/2 mice; assay type: in vivo; settings: male R6/2 mice
other steroid receptors = settings: no test described; cited from earlier work
[5] = experiment 1, male HD R6/2 mice, vs vehicle-treated HD mice
[6] = experiment 2 (larger cohort), male HD R6/2 mice, vs vehicle

Row | Structure (SMILES) | Forelimb grip strength over time (R6/2 mouse model [1]; [5]) | Grip strength (R6/2 mouse model [1]; [6]) | Hindlimb clasping score (R6/2 mouse model [2]; experiment 1, female HD R6/2 mice) | Hindlimb clasping score (R6/2 mouse model [2]; [5]) | Clasping score (R6/2 mouse model [2]; [6]) | Total number of epileptic seizures (R6/2 mouse model [3]; experiment 1, female HD R6/2 mice, 30 mg/kg s.c. daily for 5 weeks) | Total number of epileptic seizures (R6/2 mouse model [3]; experiment 1, male HD R6/2 mice, 30 mg/kg s.c. daily for 5 weeks, vs vehicle-treated HD mice) | Time of occurrence of epileptic seizures (R6/2 mouse model [3]; experiment 1, treated HD R6/2 mice, 5-week study) | Number of epileptic seizures (R6/2 mouse model [3]; experiment 2 (larger cohort), male HD R6/2 mice, 30 mg/kg s.c. daily for 5 weeks) | GFAP immunoreactivity in striatum (GFAP) | GFAP staining intensity in hippocampus (GFAP) | Iba1 intensity in hippocampus (Iba1) | Number of mHtt aggregates in striatum (mHtt aggregates) | Total mHtt aggregate area in CA1 region of hippocampus (mHtt aggregates) | Total number of mHtt aggregates in CA1 region of hippocampus (mHtt aggregates) | mHtt aggregate size in CA1 region of hippocampus (mHtt aggregates) | mHtt aggregate size in striatum (mHtt aggregates) | Gait abnormalities (R6/2 mouse model [4]) | Cross-reactivity with other steroid receptors (selectivity for GR) (other steroid receptors)
1 | O=C(c1ccccn1)[C@]12Cc3cnn(-c4ccc(F)cc4)c3C=C1CCN(S(=O)(=O)c1ccc(C(F)(F)F)cc1)C2 [CORT113176] | attenuated this decrease of muscle function | improved grip strength | at later timepoints the treatment did attenuate the clasping score | reduced clasping score | reduced clasping score | none were observed | occurred slightly more frequently in the vehicle-treated HD mice | occurred mostly near the end of the five weeks (day 32) | Only one epileptic seizure was observed | normalized GFAP levels in male | tended to normalize this HD effect | tended to be higher | significantly decreased this number of mHtt aggregates | smaller total aggregate area | significantly fewer aggregates | smaller aggregates | of a similar size in vehicle- and CORT113176-treated HD groups | significantly delayed | lacks significant cross-reactivity with other steroid receptors
2 | CC#C[C@]1(O)CC[C@H]2[C@@H]3CCC4=CC(=O)CCC4=C3[C@@H](c3ccc(N(C)C)cc3)C[C@@]21C [mifepristone, reference compound] | – | – | – | – | – | – | – | – | – | – | – | – | – | – | – | – | – | – | is not specific for GR
3 | CC(C)n1ncc(S(=O)(=O)N2CC[C@H]3Cc4c(cnn4-c4ccc(F)cc4)C[C@]3(C(=O)c3cscn3)C2)n1 [zavacorilant, ((4aR,8aS)-1-(4-fluorophenyl)-6-((2-isopropyl-2H-1,2,3-triazol-4-yl)sulfonyl)-4,4a,5,6,7,8,8a,9-octahydro-1H-pyrazolo[3,4-g]isoquinolin-4a-yl)(thiazol-4-yl)methanone] | – | – | – | – | – | – | – | – | – | – | – | – | – | – | – | – | – | – | lacks significant cross-reactivity with other steroid receptors
